This note sets out measurements from patent US4604381A, “4-demethoxy-13-dihydrodaunorubicin and use thereof” (Farmitalia Carlo Erba S.p.A., priority 1984, dated 1986).

The subject of one data set is HeLa cells. Kind of data set: Colony inhibition test on HeLa cells (cytotoxicity). The class given is cell-based. Particulars: Homo sapiens; for IC50: read-out: DI50 (dose causing 50% inhibition). How it is done: Cytotoxicity. Colony inhibition test on HeLa cells.
The test was carried on HeLa according to the method described in J. Med. Chem., 1975, 18, 703. Exponentially growing cells (2 days after inoculation) were treated with several concentrations of daunorubicin, 4-demethoxydaunorubicin, and 4-demethoxy-13-dihydrodaunorubicin.
After 24 hours of exposure to the drugs, the cells were washed, trypsinized and plated (200 cells/plate). On day 6 the colonies containing more than 50 cells were counted. The dose causing 50% inhibition was calculated on the basis of dose-reponsive curves.
Colony inhibition on HeLa cells^a
^b % respect with control

The subject of a further data set is Gross leukemia. Kind of data set: Activity against Gross leukemia in C3H mice. The class given is in vivo. Particulars: i.v. on day 1. How it is done: (§1) Activity against Gross leukemia
The experiments were performed on C3H mice inoculated i.v. with 2×10^6 leukemic cells/mouse.
as §1

Data set [1] relates to advanced mammary Carcinoma. Kind of data set: Activity against advanced mammary carcinoma in C3H female mice. The format is in vivo. The note with it: once a week × 4 from palpable tumor; for growth % on day 48: controls 3476. How it is done:
Activity against advanced mammary Carcinoma^a
The experiments were performed on C3H female mice inoculated
with 2 × 10^6 tumor cells/mouse
^a treatment once a week × 4, starting when the tumor was […]

The test system of another data set is leukemia P 388. Kind of data set: Activity against ascitic leukemia P 388 in CDF-1 mice. The class given is in vivo. Particulars: i.p. on day 1. The protocol: Activity against ascitic leukemia P 388
The experiments were performed on CDF-1 mice inoculated i.p. with 10^6 leukemic cells/mouse.

The mark [2] stands for this setting: HeLa, 24 h, read-out: % Colonies (% respect with control).

Values after ≈ are worked out from the molar mass of the structure shown. Like-named read-outs stand apart in the source and are kept apart here.

On to `CC(O)[C@]1(O)Cc2c(O)c3c(c(O)c2[C@@H](O[C@H]2C[C@H](N)[C@H](O)[C@H](C)O2)C1)C(=O)c1ccccc1C3=O` (stereo partly shown) [4-demethoxy-13-dihydrodaunorubicin], for which the activity at 0.00156 µg/mL with HeLa cells (setting [2]) was found to be 100%. The activity at 0.0031 µg/mL in the data set with HeLa cells (setting [2]) was 45%. Further, the activity at 0.0062 µg/mL with HeLa cells (setting [2]) was determined as 9%. Moreover, the activity at 0.0125 µg/mL in the data set on HeLa cells (setting [2]) was 0%. The IC50 in the data set with HeLa cells (HeLa, 24 h) was 3 ng/mL (≈ 0.00601 µM). Also, the T/C % with Gross leukemia (0.84 mg/kg) was 200%; with Gross leukemia (1.26 mg/kg) it was 250%; in the data set with Gross leukemia (1.9 mg/kg) it was 258%; with leukemia P 388 (0.14 mg/kg), 130%; in the data set on leukemia P 388 (0.22 mg/kg), 160%; in the data set with leukemia P 388 (0.33 mg/kg), 170%. The T/C % in the data set with leukemia P 388 (0.5 mg/kg) turned out to be 170%. In addition, the toxic deaths in the data set with Gross leukemia (0.84 mg/kg), with Gross leukemia (1.26 mg/kg), with Gross leukemia (1.9 mg/kg), with leukemia P 388 (0.14 mg/kg), in the data set on leukemia P 388 (0.22 mg/kg) and in the data set with leukemia P 388 (0.33 mg/kg) was 0/10 throughout. Moreover, in the data set on leukemia P 388 (0.5 mg/kg), the toxic deaths is 3/10. The “inhibition % on day 48” value in data set [1] (0.6 mg/kg) amounted to 0%; in data set [1] (0.8 mg/kg), 3%; in data set [1] (1.2 mg/kg), 65%. Also, the “growth % on day 48” value was found to be 5124% in data set [1] (0.6 mg/kg), 3374% in data set [1] (0.8 mg/kg) and 1201% in data set [1] (1.2 mg/kg).

`CC(=O)[C@]1(O)Cc2c(O)c3c(c(O)c2[C@@H](O[C@H]2C[C@H](N)[C@H](O)[C@H](C)O2)C1)C(=O)c1ccccc1C3=O` [4-demethoxydaunorubicin]: the activity at 0.0015 µg/mL with HeLa cells (HeLa, 1.5 ng/ml, 24 hours exposure, read-out: % Colonies (% respect with control)) was determined as 126%. Besides, the activity at 0.0031 µg/mL with HeLa cells (HeLa, 3.1 ng/ml, 24 hours exposure, read-out: % Colonies (% respect with control)) was determined as 73%. Besides, the activity at 0.0062 µg/mL in the data set with HeLa cells (HeLa, 6.2 ng/ml, 24 hours exposure, read-out: % Colonies (% respect with control)) was determined as 37%. Moreover, the activity at 0.0125 µg/mL in the data set with HeLa cells (HeLa, 12.5 ng/ml, 24 hours exposure, read-out: % Colonies (% respect with control)) came out at 10%. For the same molecule, in the data set on HeLa cells (HeLa, 25 ng/ml, 24 hours exposure, read-out: % Colonies (% respect with control)), the activity at 0.025 µg/mL is 0%. Besides, the IC50 with HeLa cells (HeLa colony inhibition, 24 hours exposure) came out at 5.5 ng/mL (≈ 0.0111 µM). The T/C % is 233% in the data set on Gross leukemia (1.9 mg/kg); 233% in the data set with Gross leukemia (2.5 mg/kg); 266% with Gross leukemia (3.3 mg/kg); 150% with leukemia P 388 (0.33 mg/kg); 170% with leukemia P 388 (0.5 mg/kg); 155% in the data set with leukemia P 388 (0.75 mg/kg). Further, the toxic deaths is recorded as 0/10 in the data set with Gross leukemia (1.9 mg/kg); 0/10 in the data set on Gross leukemia (2.5 mg/kg); 0/10 in the data set on Gross leukemia (3.3 mg/kg); 0/10 in the data set with leukemia P 388 (0.33 mg/kg); 0/10 in the data set with leukemia P 388 (0.5 mg/kg); 3/10 with leukemia P 388 (0.75 mg/kg). The entries for the “inhibition % on day 48” value in data set [1] (0.8 mg/kg) and in data set [1] (1.2 mg/kg) were 0% and 42%, respectively. The “growth % on day 48” value is 4322% in data set [1] (0.8 mg/kg) and 2029% in data set [1] (1.2 mg/kg).

Turning to `COc1cccc2c1C(=O)c1c(O)c3c(c(O)c1C2=O)C[C@@](O)(C(C)=O)C[C@@H]3O[C@H]1C[C@H](N)[C@H](O)[C@H](C)O1` [daunorubicin], in the data set on HeLa cells (setting [2]), the activity at 0.0062 µg/mL worked out at 92%. In addition, the activity at 0.0125 µg/mL in the data set with HeLa cells (setting [2]) was 32%. For the same molecule, the activity at 0.025 µg/mL with HeLa cells (setting [2]) was 3%. Also, the IC50 in the data set on HeLa cells (HeLa, 24 h) worked out at 11 ng/mL (≈ 0.0209 µM). In addition, the T/C % stood at 150% in the data set with Gross leukemia (10 mg/kg); 183% with Gross leukemia (15 mg/kg); 233% in the data set on Gross leukemia (22.5 mg/kg); 180% with leukemia P 388 (4.4 mg/kg); 168% in the data set on leukemia P 388 (6.6 mg/kg). Moreover, the toxic deaths with Gross leukemia (10 mg/kg) is reported as 0/10; with Gross leukemia (15 mg/kg) it was 0/10; in the data set with Gross leukemia (22.5 mg/kg), 0/10; in the data set with leukemia P 388 (4.4 mg/kg) it was 0/10; with leukemia P 388 (6.6 mg/kg), 2/10.
